Values of other authors, collected in patent US10021900B2, “Carbohydrate composition and food and beverage producing gradual rise in blood glucose levels” (MATSUTANI CHEMICAL INDUSTRY CO., LTD., priority 2011, dated 2018).

Conditions: 10% by mass aqueous solution

OC[C@H]1O[C@H](OC[C@H]2OC(O)(CO)[C@@H](O)[C@@H]2O)[C@H](O)[C@@H](O)[C@@H]1O (stereo partly shown) [isomaltulose]
osmotic pressure: about 340 mOSMOL/kg
